Test results: patent publication US9593157B2, “Chimeric polypeptides comprising G protein-coupled receptors and VHH antibodies” (VIB VZW, priority 2013, dated 2017)

How the values were obtained:
Type in all cases: binding
hMor1-34GS-Nb33 = molecular target: T1, hMor1-34GS-Nb33 (Homo sapiens, UniProt P35372); assay: biochemical
T1 construct: HA signal peptide (N); made in house; host or cells: Sf9 insect cells (baculovirus), membranes

hMor1-34GS-Nb10 = molecular target: T2, hMor1-34GS-Nb10 (Homo sapiens, UniProt P35372); assay: biochemical
T2 construct: HA signal peptide (N); made in house; host or cells: Sf9 insect cells (baculovirus), membranes

M2Δi3R-Nb9-8 = molecular target: T3, M2Δi3R-Nb9-8 (Homo sapiens, UniProt P08172, A373T/DEL233-372/K374R/N2D/N3D/N6D/N9D); assay: Radioligand competition on M2Δi3R-Nb9-8 fusion (data not shown)
T3 construct: linker […]; His6 (C); made in house
T3 sequence (P08172 with tags, fused parts or gaps N2D/N3D/N6D/N9D/DEL233-372/A373T/K374R): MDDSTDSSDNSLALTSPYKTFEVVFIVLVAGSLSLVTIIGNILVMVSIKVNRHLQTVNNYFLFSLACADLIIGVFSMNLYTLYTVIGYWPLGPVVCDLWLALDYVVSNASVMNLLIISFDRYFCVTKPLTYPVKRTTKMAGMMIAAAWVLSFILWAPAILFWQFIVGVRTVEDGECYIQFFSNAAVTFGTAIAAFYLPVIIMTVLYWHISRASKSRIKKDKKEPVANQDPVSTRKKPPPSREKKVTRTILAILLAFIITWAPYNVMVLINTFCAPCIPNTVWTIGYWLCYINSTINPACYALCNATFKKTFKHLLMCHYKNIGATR

M2Δi3R = molecular target: T4, M2Δi3R (Homo sapiens, UniProt P08172, A373T/DEL233-372/K374R/N2D/N3D/N6D/N9D); assay: Comparative radioligand competition assay ([3H]-N methyl scopolamine) on Sf9 membranes expressing non-fused M2Δi3R; settings: [3H]-NMS 0.5 nM
T4 construct: made in house; host or cells: Sf9 insect cells (baculovirus), membranes
T4 sequence (P08172 with tags, fused parts or gaps N2D/N3D/N6D/N9D/DEL233-372/A373T/K374R): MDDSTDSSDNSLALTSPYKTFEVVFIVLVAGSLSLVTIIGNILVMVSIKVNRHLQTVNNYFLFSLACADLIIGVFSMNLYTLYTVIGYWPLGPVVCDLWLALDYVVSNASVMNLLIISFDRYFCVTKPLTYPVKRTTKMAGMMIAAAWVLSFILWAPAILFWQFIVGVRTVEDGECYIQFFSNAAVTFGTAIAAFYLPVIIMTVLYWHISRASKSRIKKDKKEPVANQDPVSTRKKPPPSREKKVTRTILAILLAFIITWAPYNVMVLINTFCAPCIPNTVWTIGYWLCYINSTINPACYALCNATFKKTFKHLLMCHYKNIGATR
Experimental: (§1) Radioligand competition binding experiments were performed on Sf9 insect cell membranes expressing either M2Δi3R (no Single-domain antibody fused) or M2Δi3R-Nb9-1. […] After filtration, membranes retained on the filter plates were washed with ice-cold wash buffer (20 mM Tris-HCl pH7.4), and filters were dried for 1 hour at 50° C.

M2Δi3R-Nb9-1 = molecular target: T5, M2Δi3R-Nb9-1 (Homo sapiens, UniProt P08172, A373T/DEL233-372/K374R/N2D/N3D/N6D/N9D); assay: Comparative radioligand competition assay ([3H]-N methyl scopolamine) on Sf9 membranes expressing M2Δi3R-Nb9-1
T5 construct: linker […]; made in house; host or cells: Sf9 insect cells (baculovirus), membranes
T5 sequence (P08172 with tags, fused parts or gaps N2D/N3D/N6D/N9D/DEL233-372/A373T/K374R): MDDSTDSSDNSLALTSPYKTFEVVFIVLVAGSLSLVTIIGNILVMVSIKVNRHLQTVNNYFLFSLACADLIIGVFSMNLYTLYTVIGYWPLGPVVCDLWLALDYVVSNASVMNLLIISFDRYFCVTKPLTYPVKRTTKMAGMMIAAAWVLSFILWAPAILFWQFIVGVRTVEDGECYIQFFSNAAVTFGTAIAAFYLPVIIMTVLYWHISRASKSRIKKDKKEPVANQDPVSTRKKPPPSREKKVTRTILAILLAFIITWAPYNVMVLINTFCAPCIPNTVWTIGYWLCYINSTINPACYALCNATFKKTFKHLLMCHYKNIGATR
Experimental: as §1

[1] = molecular target: T6, non-fused β2AR365N in presence of exogenously added Nb80 (Homo sapiens, UniProt P07550, E27Q/G16R/N187E); assay: Radioligand competition assay on non-fused β2AR365N in complex with exogenously added Nb80; settings: epinephrine bound active state; 5 μM Nb80 in 250 μl
T6 construct: made in house; host or cells: Sf9 insect cells (baculovirus), membranes; purified Nb80 added
Experimental: To compare the efficiency of fused versus non-fused Nb80 to stabilize the active state of β2AR, the pharmacological properties of the β2AR365N-Nb80 fusion was compared to the non-fused β2AR365N in complex with exogenously added Nb80. […] The β2AR365N-Nb69 fusion and β2AR365N in complex with exogenously added Nb69 were assayed in parallel as controls.
Radioligand competition binding experiments were performed on Sf9 insect cell membranes (5 μg total protein) expressing either β2AR365N (no Single-domain antibody fused), β2AR365N-Nb80 or β2AR365N-Nb69. […] Data represent the mean±SEM of each data point performed in triplicate.

β2AR = β2AR (Homo sapiens, UniProt P07550); assay: Affinity of Single-domain antibody for β2AR
Mor1 = Mor1 (Homo sapiens, UniProt P35372); assay: Affinity of Single-domain antibody for Mor1

Molecule: Cc1cc(O)cc(C)c1C[C@H](N)C(=O)N[C@H](CCCNC(=N)N)C(=O)N[C@H]1Cc2ccccc2CN(CCC(N)=O)C1=O [KGOP01]
- IC50 (hMor1-34GS-Nb33): 3.8 nM
- IC50Nb33/IC50Nb10 (fold preference) (hMor1-34GS-Nb33): 20
- IC50 (hMor1-34GS-Nb10): 76.7 nM

Molecule: C[N+](C)(C)CCOC(N)=O [carbachol]
- affinity of M2Δi3R-Nb9-8 fusion compared to non-fused M2Δi3R (M2Δi3R-Nb9-8): higher affinity

Molecule: C[N+](C)(C)CC#CCN1CCCC1=O [oxotremorine M]
- IC50 (M2Δi3R): 98400 nM
- IC50 ratio IC50m2Δi3R/IC50highM2Δi3R-Nb9-1 (M2Δi3R-Nb9-1): 316
- IC50 (M2Δi3R-Nb9-1; [3H]-NMS 0.5 nM, Sf9 membranes, IC50high): 310 nM

B1: Nb80: β2AR specific Single-domain antibody stabilizing the active state, SEQ ID NO:13 (protein)
VHH: QVQLQESGGGLVQAGGSLRLSCAASGSIFSINTMGWYRQAPGKQRELVAAIHSGGSTNYANSVKGRFTISRDNAANTVYLQMNSLKPEDTAVYYCNVKDYGAVLYEYDYWGQGTQVTVSS
modifications: Nb80
- molar excess of exogenously added Nb80 over β2AR required to constrain the receptor with same efficiency as the fusion [1]: 12500 fold

B2: Nb69: mock Single-domain antibody specific for Muscarinic3 receptor, SEQ ID NO:15 (protein)
VHH: QVQLQESGGGLVQAGGSLRLSCTASGLTLSNYAMGWFRQAPGKEREFVAADTWNGNTYHQDSVKGRFTISRDNAKNTVYLQMNYLKPEDTAVYYCAARGSRRSAYYSSSDYTYRGQGTQVTVSS
modifications: Nb69
- affinity for β2AR (β2AR): no detectable affinity

B3: Nb10: Single-domain antibody specific for a chemokine GPCR, SEQ ID NO:20 (protein)
VHH: QVQLQESGGGLVQPGGSLRLSCAASGSFRSIVSMAWYRQAPGKQRELVASSNSGGSTNYADSVKGRFTISRDNAKNTVYLQMNSLKPEDTAVYWCNVQNRLPGFDAFSGRSIAETYWGQGTQVTVSS
modifications: Nb10
- affinity for Mor1 (Mor1): no detectable affinity
